Patent publication US20180110754A1, “CENICRIVIROC FOR THE TREATMENT OF FIBROSIS” (Tobira Therapeutics, Inc., priority 2015, published 2018)
Where two headings read alike, the source gives them in different places.

Conditions: for SAE: Suicidal ideation, n subjects: through Week 48
Text: Subjects with a history of HIV-2, hepatitis B and/or C, cirrhosis of the liver or any known active or chronic active liver disease were excluded from the study.
Most AEs were mild or moderate (Grade 1 or Grade 2). […] None of the Grade ≥3 AEs (preferred terms) were reported in more than 1 subject.

CCCCOCCOc1ccc(-c2ccc3c(c2)/C=C(/C(=O)Nc2ccc([S@@+]([O-])Cc4cncn4CCC)cc2)CCCN3CC(C)C)cc1 [CVC, (S)-8-[4-(2-Butoxyethoxy)phenyl]-1-isobutyl-N-(4-{[(1-propyl-1H-imidazol-5-yl)methyl]sulfinyl}phenyl)-1,2,3,4-tetrahydro-1-benzazocine-5-carboxamide]
Deaths (All CVC (N = 115)): 0 n
SAE: Suicidal ideation, n subjects (All CVC (N = 115), EFV (N = 28)): 0
Grade 3 or 4 AE: Suicidal ideation, n subjects (All CVC (N = 115), EFV (N = 28; Grade 4 event)): 0
Any AE, n subjects (CVC 100 mg (N = 58)): 51
Any Grade 3 AE, n subjects (CVC 100 mg (N = 58)): 2
Any Grade 4 AE, n subjects (CVC 100 mg (N = 58)): 0
Deaths (CVC 100 mg (N = 58)): 0 n
Grade 3 or 4 AE: Abdominal pain, n subjects (CVC 100 mg (N = 58)): 1
Grade 3 or 4 AE: Blindness unilateral, n subjects (CVC 100 mg (N = 58)): 0
Grade 3 or 4 AE: Blood creatine phosphokinase increased, n subjects (CVC 100 mg (N = 58)): 0
Grade 3 or 4 AE: Cardiac disorders, n subjects (CVC 100 mg (N = 58)): 1
Grade 3 or 4 AE: Corneal infection, n subjects (CVC 100 mg (N = 58)): 0
Grade 3 or 4 AE: Suicidal ideation, n subjects (CVC 100 mg (N = 58)): 0
SAE: Suicidal ideation, n subjects (CVC 100 mg (N = 58)): 0
Any AE, n subjects (CVC 200 mg (N = 57)): 48
Any Grade 3 AE, n subjects (CVC 200 mg (N = 57)): 3
Any Grade 4 AE, n subjects (CVC 200 mg (N = 57)): 0
Deaths (CVC 200 mg (N = 57)): 0 n
Grade 3 or 4 AE: Abdominal pain, n subjects (CVC 200 mg (N = 57)): 0
Grade 3 or 4 AE: Blindness unilateral, n subjects (CVC 200 mg (N = 57)): 1
Grade 3 or 4 AE: Blood creatine phosphokinase increased, n subjects (CVC 200 mg (N = 57)): 1
Grade 3 or 4 AE: Cardiac disorders, n subjects (CVC 200 mg (N = 57)): 0
Grade 3 or 4 AE: Corneal infection, n subjects (CVC 200 mg (N = 57)): 1
Grade 3 or 4 AE: Suicidal ideation, n subjects (CVC 200 mg (N = 57)): 0
SAE: Suicidal ideation, n subjects (CVC 200 mg (N = 57)): 0
Grade 3 or 4 AE: Blood creatine phosphokinase increased, n subjects (human, in vivo, 48 week): 1
Grade 3 or 4 AE: Cardiac disorders, n subjects (human, in vivo, 48 week): 1
Grade 3 or 4 AE: Depression, n subjects (human, in vivo, 48 week): 0
Grade 3 or 4 AE: Ear and labyrinth disorders, n subjects (human, in vivo, 48 week): 0
Grade 3 or 4 AE: Investigations, n subjects (human, in vivo, 48 week): 1
Grade 3 or 4 AE: Palpitations, n subjects (human, in vivo, 48 week): 1
Grade 3 or 4 AE: Psychiatric disorders, n subjects (human, in vivo, 48 week): 1
Grade 3 or 4 AE: Stress, n subjects (human, in vivo, 48 week): 1
Grade 3 or 4 AE: Weight decreased, n subjects (human, in vivo, 48 week): 0
AE Abnormal dreams, n subjects (human, in vivo, 48 weeks): 9
AE Depression, n subjects (human, in vivo, 48 weeks): 3
AE Diarrhoea, n subjects (human, in vivo, 48 weeks): 17
AE Dizziness, n subjects (human, in vivo, 48 weeks): 11
AE Fatigue, n subjects (human, in vivo, 48 weeks): 14
AE Headache, n subjects (human, in vivo, 48 weeks): 16
AE Insomnia, n subjects (human, in vivo, 48 weeks): 7
AE Lymphadenopathy, n subjects (human, in vivo, 48 weeks): 7
AE Nasopharyngitis, n subjects (human, in vivo, 48 weeks): 10
AE Nausea, n subjects (human, in vivo, 48 weeks): 18
AE Rash, n subjects (human, in vivo, 48 weeks): 14
AE Syphilis, n subjects (human, in vivo, 48 weeks): 1
AE Upper respiratory tract infection, n subjects (human, in vivo, 48 weeks): 18
AE leading to discontinuation: Abnormal dreams, n subjects (human, in vivo, 48 weeks): 0
AE leading to discontinuation: Aggression, n subjects (human, in vivo, 48 weeks): 1
AE leading to discontinuation: Anxiety, n subjects (human, in vivo, 48 weeks): 0
AE leading to discontinuation: Depression, n subjects (human, in vivo, 48 weeks): 1
AE leading to discontinuation: Dermatitis allergic, n subjects (human, in vivo, 48 weeks): 0
AE leading to discontinuation: Disturbance in attention, n subjects (human, in vivo, 48 weeks): 0
AE leading to discontinuation: Dizziness, n subjects (human, in vivo, 48 weeks): 0
AE leading to discontinuation: Ear and labyrinth disorders, n subjects (human, in vivo, 48 weeks): 0
AE leading to discontinuation: Eye disorders, n subjects (human, in vivo, 48 weeks): 0
AE leading to discontinuation: Gastrointestinal disorders, n subjects (human, in vivo, 48 weeks): 0
AE leading to discontinuation: General disorders and administration site conditions, n subjects (human, in vivo, 48 weeks): 1
AE leading to discontinuation: Hypoaesthesia, n subjects (human, in vivo, 48 weeks): 0
AE leading to discontinuation: Insomnia, n subjects (human, in vivo, 48 weeks): 0
AE leading to discontinuation: Malaise, n subjects (human, in vivo, 48 weeks): 1
AE leading to discontinuation: Musculoskeletal and connective tissue disorders, n subjects (human, in vivo, 48 weeks): 0
AE leading to discontinuation: Musculoskeletal discomfort, n subjects (human, in vivo, 48 weeks): 0
AE leading to discontinuation: Nausea, n subjects (human, in vivo, 48 weeks): 0
AE leading to discontinuation: Nervous system disorders, n subjects (human, in vivo, 48 weeks): 0
AE leading to discontinuation: Photophobia, n subjects (human, in vivo, 48 weeks): 0
AE leading to discontinuation: Psychiatric disorders, n subjects (human, in vivo, 48 weeks): 1
AE leading to discontinuation: Rash, n subjects (human, in vivo, 48 weeks): 0
AE leading to discontinuation: Skin and subcutaneous tissue disorders, n subjects (human, in vivo, 48 weeks): 0
AE leading to discontinuation: Tachyphrenia, n subjects (human, in vivo, 48 weeks): 0
AE leading to discontinuation: Thinking abnormal, n subjects (human, in vivo, 48 weeks): 1
AE leading to discontinuation: Tinnitus, n subjects (human, in vivo, 48 weeks): 0
Any AE leading to discontinuation of study drug, n subjects (human, in vivo, 48 weeks): 1
Any AE, n subjects (human, in vivo, 48 weeks): 99
Any Grade 3 AE, n subjects (human, in vivo, 48 weeks): 5
Any Grade 4 AE, n subjects (human, in vivo, 48 weeks): 0
Any SAE, n subjects (human, in vivo, 48 weeks): 2
Grade 3 or 4 AE: Abdominal pain, n subjects (human, in vivo, 48 weeks): 1
Grade 3 or 4 AE: Blindness unilateral, n subjects (human, in vivo, 48 weeks): 1
Grade 3 or 4 AE: Corneal infection, n subjects (human, in vivo, 48 weeks): 1
Grade 3 or 4 AE: Dermatitis allergic, n subjects (human, in vivo, 48 weeks): 0
Grade 3 or 4 AE: Eye disorders, n subjects (human, in vivo, 48 weeks): 1
Grade 3 or 4 AE: Gastrointestinal disorders, n subjects (human, in vivo, 48 weeks): 1
Grade 3 or 4 AE: General disorders and administration site conditions, n subjects (human, in vivo, 48 weeks): 1
Grade 3 or 4 AE: Infections and infestations, n subjects (human, in vivo, 48 weeks): 1
Grade 3 or 4 AE: Pyrexia, n subjects (human, in vivo, 48 weeks): 1
Grade 3 or 4 AE: Skin and subcutaneous tissue disorders, n subjects (human, in vivo, 48 weeks): 0
Grade 3 or 4 AE: Tinnitus, n subjects (human, in vivo, 48 weeks): 0
SAE: Blindness unilateral, n subjects (human, in vivo, 48 weeks): 1
SAE: Corneal infection, n subjects (human, in vivo, 48 weeks): 1
SAE: Depression, n subjects (human, in vivo, 48 weeks): 0
SAE: Eye disorders, n subjects (human, in vivo, 48 weeks): 1
SAE: Gastroenteritis, n subjects (human, in vivo, 48 weeks): 1
SAE: Infections and infestations, n subjects (human, in vivo, 48 weeks): 2
SAE: Psychiatric disorders, n subjects (human, in vivo, 48 weeks): 0
Subjects who experienced a Grade ≥3 AE (human, in vivo, 48 weeks): 4%
Subjects with AEs, worst grade severity Grade 4 (human, in vivo, 48 weeks): 0 n
